Earlier results, collected in patent US6576673B2, “Method of deterring woodpeckers” (priority 2001, dated 2003).

Test system: golden fronted adult woodpeckers
Conditions: painted or applied to a surface of a utility pole; smaller golden fronted adult woodpeckers

CC1=CC(=O)CC(C)(C)C1 [Isophorone, 3,5,5-trimethyl-2-cyclohexen-one-1]
repelling woodpeckers: effective in repelling woodpeckers
